What is called pIC50 is the IC50 on a negative log10 scale, so that one unit is a factor of ten. The low end stands for a high IC50, the high end for a low IC50.

The text below walks through data of patent publication US20110021531A1, “OXAZOLE DERIVATIVES USEFUL AS INHIBITORS OF FAAH” (priority 2009, published 2011).

Structures are written as SMILES. pIC50: −log10 of the molar value.

Experiment [1] has as its target T1, rat FAAH (Fatty Acid Amide Hydrolase) (Rattus norvegicus, UniProt P97612).
T1 sequence (P97612 1-579): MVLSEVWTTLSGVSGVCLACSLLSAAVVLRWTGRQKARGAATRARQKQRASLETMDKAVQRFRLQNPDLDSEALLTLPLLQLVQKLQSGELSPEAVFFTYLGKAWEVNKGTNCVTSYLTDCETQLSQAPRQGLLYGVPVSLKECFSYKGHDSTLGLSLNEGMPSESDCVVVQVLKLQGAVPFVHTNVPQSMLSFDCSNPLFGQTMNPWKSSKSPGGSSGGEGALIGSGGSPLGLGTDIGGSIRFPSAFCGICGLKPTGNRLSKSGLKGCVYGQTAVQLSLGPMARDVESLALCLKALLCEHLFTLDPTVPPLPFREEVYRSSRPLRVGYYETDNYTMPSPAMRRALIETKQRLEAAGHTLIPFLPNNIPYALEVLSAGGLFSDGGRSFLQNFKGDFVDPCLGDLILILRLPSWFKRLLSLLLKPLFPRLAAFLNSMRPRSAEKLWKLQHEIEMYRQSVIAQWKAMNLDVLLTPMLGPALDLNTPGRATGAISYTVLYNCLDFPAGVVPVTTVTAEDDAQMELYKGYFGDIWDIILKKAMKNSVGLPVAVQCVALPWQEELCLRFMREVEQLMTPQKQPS
The experiment is described as follows: FAAH whole cell assay, CHO cells expressing rat FAAH. The experiment is classed as cell-based. The source says:
(§1) To assist in assay development stable cell lines for human, murine and rat full length FAAH were developed. Human FAAH cDNA (Accession No: NM_001441.1) was purchased from Origene (Rockville, Md.). The full length FAAH was subcloned into the mammalian expression vector, pcDEF.neo, using XbaI and EcoRI restriction sites and used for stable cell line generation.
(§2) Murine (accession number NM_010173) and Rat FAAH (accession number NM_024132) was amplified by reverse transcriptase polymerase chain reaction (RT-PCR) from brain cDNA (BD Biosciences, San Jose, Calif.) using primers 1 and 2 or primers 1 and 3 respectively (see Table). The resulting PCR product was ligated into pCR4 TOPO and DNA sequence confirmed. The full length murine FAAH was subcloned into the mammalian expression vector, pcDEFneo using either EcoRI (murine) or KpnI and EcoRI (rat) restriction sites. Chinese hamster ovary cells (CHO) were transfected following manufacturers protocol (AMAXA). Forty eight hours post transfection, cells were trypsinized and transferred to 96 well plates in Iscove's DMEM media supplemented with 2 mM Glutamine, 10% fetal calf serum, 1 mg/ml geneticin and HT Supplement (0.1 mM sodium hypoxanthine, 0.016 mM thymidine) in order to isolate single clones. Following selection in geneticin, individual clones were selected and FAAH activity was assessed using a whole cell fluorescent anandamide assay, modified from Ramarao et al (2005). Following removal of tissue culture media cells were dislodged following addition of Cellstripper (Mediatech, Inc. Manassas, Va.) and transferred to 96 well black clear bottom assay plate, centrifuged at 1,000 rpm for 3 mins and media removed and replaced with assay buffer (50 mM Iris pH8.0, 1 mM EDTA, 0.1% fatty acid free BSA). The reaction was initiated by addition of fluorescent substrate, AMC Arachidonoyl Amide (Cayman Chemical, Ann Arbor, Mich.) to 1 μM and reaction allowed to proceed for 2 hours at room temperature. Release of fluorescence was monitored in a CytoFluor Multiplate Reader. Cells expressing the highest amount of FAAH activity were selected for study with FAAH inhibitors.
(§3) (American Radiolabeled Chemicals; 1 mCi/ml) with FAAH (Life Sciences (1995), 56, 1999-2005 and Journal of Pharmacology and Experimented Therapeutics (1997), 283, 729-734), Analytical. Biochemistry (2003), 318, 270-5. In addition, routine assays were performed monitoring hydrolysis of arachidonyl-7-amino-4-methylcoumarin amide (AAMCA) by following increase in fluorescence upon release of 7-amino 4-methyl coumarin (λEX=355 nm, (λEM=460 nm). Analytical. Biochemistry (2005). 343, 143-51
(§4) Assays are performed on either cell lysate or microsome fractions prepared as described or in whole cell format employing either the fluorescent substrate AAMCA (Cayman chemical, Ann Arbor, Mich.,) or ^3H-anandmaide ([ETHANOLAMINE-1-3H]American Radiolabeled Chemicals; 1 mCi/ml). The cell lysate or microsome assay is performed in Costar black wall, clear bottom plates by adding FAAH_CF10 (whole cell, cell lysate or microsome) in assay buffer (50 mM Phosphate, pH 8.0, 1 mM EDTA, 200 mM KCl, 0.2% glycerol, 0.1% fatty acid free BSA) to each well, followed by either DMSO or compound and allowed to incubate at 22-25° C. for fifteen minutes. AAMCA substrate was used to achieve a final concentration of 1 μM and reaction allowed to proceed at room temperature for 1-3 hours. Fluorescent release as a measure of FAAH activity was monitored by reading the plate in a CytoFluor Multiplate Reader (Ex: […]). Whole cell assay is conducted with cells harvested after rinsing tissue culture flasks three times with Ca^++Mg^++ free PBS, incubating for 10 min in Enzyme free dissociation media and centrifuging for 5 minutes at 1,000 rpm in table top centrifuge. Cells are resuspended in assay buffer at desired cell number in (4×10^4 cells/assay in 96-well format; 1×10^4 cells/assay in 384-well format) and assayed as described.

In experiment [2] the target is T2, human FAAH (Fatty Acid Amide Hydrolase) (Homo sapiens, UniProt O00519).
T2 construct: The full length FAAH was subcloned into the mammalian expression vector, pcDEF.neo
T2 sequence (O00519 1-579): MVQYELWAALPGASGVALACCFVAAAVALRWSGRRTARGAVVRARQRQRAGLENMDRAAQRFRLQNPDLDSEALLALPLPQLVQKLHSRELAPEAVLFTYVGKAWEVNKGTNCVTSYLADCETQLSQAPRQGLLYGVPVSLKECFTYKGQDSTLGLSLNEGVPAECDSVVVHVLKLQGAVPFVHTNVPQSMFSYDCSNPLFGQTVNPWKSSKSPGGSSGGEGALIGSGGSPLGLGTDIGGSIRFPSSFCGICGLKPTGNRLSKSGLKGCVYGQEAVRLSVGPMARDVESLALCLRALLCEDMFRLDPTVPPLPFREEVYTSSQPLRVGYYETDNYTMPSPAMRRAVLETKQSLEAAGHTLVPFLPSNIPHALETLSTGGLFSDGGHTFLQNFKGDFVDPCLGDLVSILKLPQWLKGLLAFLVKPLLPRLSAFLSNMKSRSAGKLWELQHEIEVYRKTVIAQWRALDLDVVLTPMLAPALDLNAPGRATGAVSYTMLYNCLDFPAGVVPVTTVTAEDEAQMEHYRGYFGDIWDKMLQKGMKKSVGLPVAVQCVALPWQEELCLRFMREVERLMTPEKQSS
Description: FAAH enzyme assay on lysate of CHO cells expressing human FAAH. The format is biochemical.
Description: as §1
CHO cells expressing FAAH were used to prepare either crude cell lysate or microsome fractions. To harvest cells, tissue culture media was decanted, the monolayer washed three times with Ca^++Mg^++ free PBS and cells recovered after […] in enzyme free dissociation media (Millipore Corp, Billerica, Mass.). Cells were collected by centrifuging at 2000 rpm for 15 min. and the cell pellet re-suspended with 50 mM HEPES (pH 7.4) containing 1 mM EDTA and the protease inhibitors aprotinin (1 mg/ml) and leupeptin (100 μM). The suspension was sonicated at 4° C. and the cell lysate recovered after centrifuging at 12,000×g (14,600 rpm, SS34 rotor) for 20 min at 4° C. to form a crude pellet of cell debris, nuclei, peroxisomes, lysosomes, and mitochondria; the supernatant or cell lysate was used for FAAH enzyme assay. In some cases, microsomes fractions enriched in FAAH were prepared by centrifuging the cell lysate further at 27,000 rpm (100,000×g) in SW28 rotor for 50 minutes at 4° C. The pellet containing FAAH-enriched microsomes was re-suspend in 50 mM HEPES, (pH 7.4) 1 mM EDTA, and any remaining DNA sheared by passage of material through a 23 gauge needle and aliquots of enzyme were store at −80° C. prior to use.
as §3, §4
Alternatively, assays are performed using anandamide [ethanolamine 1-^3H] (specific activity of 10 Ci/mmol) diluted with cold anandamide to achieve a final assay concentration of 1 μM anandamide (˜50,000 cpm). Enzyme (CHO cell lysate, brain or liver homogenate) is incubated in assay buffer (50 mM Phosphate, pH 8.0, 1 mM EDTA, 200 mM KCl, 0.2% glycerol, 0.1% fatty acid free BSA) with inhibitor at 25° C. for 30 minutes. The reaction was terminated by addition of 2 volumes of chloroform:methanol (1:1) and mixed by vortexing. […]

Experiment [3] deals with T2, human FAAH (Fatty Acid Amide Hydrolase). Description: FAAH whole cell assay, CHO cells expressing human FAAH. The format is cell-based.
Description: as §1, §2, §3, §4

With `CCn1cc(-c2nc(-c3ccc(C(C)(C)O)nc3)c(Sc3ccc(Cl)cc3)o2)cn1` [Ex 111, 2-(5-{5-[(4-chlorophenyl)sulfanyl]-2-(1-ethyl-1H-pyrazol-4-yl)-1,3-oxazol-4-yl)pyridin-2-yl}propan-2-ol], the pIC50 was 7.62 in experiment [1], 7.96 in experiment [2] and 7.19 in experiment [3].

On to `CC(C)(O)c1ccc(-c2nc(-c3cncc(Cl)c3)oc2Sc2ccc(Cl)cn2)cn1` [Ex 119, 2-(5-{2-(5-Chloropyridin-3-yl)-5-[(5-chloropyridin-2-yl)sulfanyl]-1,3-oxazol-4-yl}pyridin-2-yl)propan-2-ol], for which the pIC50 was 7.70 in experiment [1], 7.55 in experiment [2] and 7.33 in experiment [3].

For `N#CC1(c2ccc(-c3nc(-c4ccc(F)cc4)oc3Sc3ccc(Cl)cn3)cn2)CC(O)C1` (stereo not drawn) [Ex 122, 1-(5-{5-[(5-Chloropyridin-2-yl)sulfanyl]-2-(4-fluorophenyl)-1,3-oxazol-4-yl}pyridin-2-yl)-3-hydroxycyclobutanecarbonitrile], the pIC50 was 6.84 in experiment [1], 6.79 in experiment [2] and 6.32 in experiment [3].

For the compound `CC(C)(O)c1ccc(-c2nc(Cc3ccc(F)cc3)oc2Sc2ccc(Cl)cn2)cn1` [Ex 123, 2-(5-{5-[(5-Chloropyridin-2-yl)sulfanyl]-2-(4-fluorobenzyl)-1,3-oxazol-4-yl}pyridin-2-yl)propan-2-ol], the pIC50 was 6.54 in experiment [1], 7.13 in experiment [2] and 6.29 in experiment [3].

On to `COC(=O)c1cnc(-c2nc(-c3ccc(F)cc3)oc2Sc2ccc(Cl)cn2)nc1` [Ex 124, Methyl 2-{5-[(5-chloropyridin-2-yl)sulfanyl]-2-(4-fluorophenyl)-1,3-oxazol-4-yl}pyrimidine-5-carboxylate], for which the pIC50 in experiment [1] was 7.80; in experiment [2], 7.96; in experiment [3] it was 7.01.

For `CC(C)(O)c1ccc(-c2nc(-c3ccccn3)oc2Sc2ccc(F)cn2)cn1` [Ex 125], the pIC50 in experiment [1] was 6.17; in experiment [2] it was 7.03; in experiment [3], 5.64.

On to `CC(C)(O)c1ccc(-c2nc(-c3ccccn3)oc2Sc2ncc(Cl)cn2)cn1` [Ex 131], for which the negative-log IC50 (pIC50) in experiment [1] is 6.11; in experiment [2] it was 6.85; in experiment [3], 5.95.
